Source: patent US7812022B2 (GlaxoSmithKline LLC, priority 2004, dated 2010)

Experiments:
[1] = tested on: BT474 and HN5 tumor cell lines; test: Methylene blue growth inhibition assay (cellular Method A); format: cell-based, Human; settings: Homo sapiens, BT-474, 72 h, 3 days, read-out: Activity (Method): growth inhibition IC50 class
In short: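 Colo205, BT474 and HN5 cells in DMEM/10% FBS (BT474 10,000, HN5 3,000 cells/well) treated next day with compound in DMEM, 0.3% final DMSO, for 3 days at 37° C. Biomass stained with methylene blue, solubilized, read at OD 620; IC50 interpolated by nonlinear regression from % inhibition versus vehicle.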

[2] = tested on: Colo205 tumor cell lines; test: Methylene blue growth inhibition assay (cellular Method A), Colo205; format: cell-based, Human; settings: Homo sapiens, COLO 205, 72 h, 3 days, read-out: Activity (Method): growth inhibition IC50 class
Protocol: Human breast (BT474) and head and neck (HN5) were cultured in low glucose DMEM (Life Technologies 12320-032) containing 10% fetal bovine serum (FBS). Human colon tumor cells (Colo205) were cultured in DMEM (Invitrogen, 10564) containing 10% FBS. The SV40 transformed human mammary epithelial cell line HB4a was transfected with either human H-ras cDNA (HB4a r4.2) or the human c-ErbB2 cDNA (HB4a c5.2). The HB4a clones were cultured in RPMI containing 10% FBS, insulin (5 g/mL), hydrocortisone (5 g/mL), supplemented with the selection agent hygromycin B (50 g/mL). All lines were grown in a humidified incubator at 37° C. in 95% air, 5% CO2. Cells were harvested using trypsin/EDTA, counted using a haemocytometer, and plated in 100 microliters of the appropriate media, at the following densities, in a 96-well tissue culture plate (Falcon 3075): BT474 10,000 cells/well, HN5 3,000 cells/well. The next day, compounds were diluted in DMEM containing […] gentamicin, at twice the final required concentration, from 10 mM stock solutions in DMSO. 100 microliters/well of these dilutions were added to the 100 microliters of media currently on the cell plates. Medium containing 0.6% DMSO was added to control wells. Compounds diluted in DMEM were added to all cell lines. The final concentration of DMSO in all wells was 0.3%. Cells were returned to the incubator (37° C., 10% CO2) for 3 days. Medium was then removed by aspiration. Cell biomass was estimated by staining cells with 90 microliters per well methylene blue (Sigma M9140, 0.5% in 1:1 ethanol:water), and incubation at rt for at least 30 minutes. Stain was removed, and the plates rinsed by immersion in deionized water and air-dried. To release stain from the cells 100 microliters of solubilization solution was added (1% N-lauroyl sarcosine, Sodium salt, Sigma L5125, in PBS), and plates were shaken gently for about 30 minutes. Optical density at 620 nm was measured on a microplate reader. Percent inhibition of cell growth was calculated relative to vehicle treated control wells. Concentration of compound that inhibits 50% of control cell growth (IC50) was interpolated using nonlinear regression (Levenberg-Marquardt) and the equation, y=Vmax*(1−(x/(K+x)))+Y2, where “K” was equal to the IC50. Method B: Celltiter Glo® Growth Inhibition Assays

[3] = molecular target: T1, ErbB2 or EGFR; test: ErbB family substrate phosphorylation enzyme assay (HTRF), Method A or Method B; format: biochemical
T1 construct: enzymes purified from a baculovirus expression system; Reagent production was conducted essentially as described in Brignola, P. S., et al, (2002) J. Biol. Chem. 277(2): 1576-1585
In short: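 Baculovirus-expressed EGFR or ErbB2 (0.8 or 10 nM in enzyme mix) phosphorylates biotinylated Peptide C with 20 µM ATP and 0.8 µM peptide (substrate-mix levels), MnCl2, pH 7.5. Reaction ran 90 min at 20 °C with EDTA stop and HTRF anti-phosphotyrosine read. Method A: enzyme added last; Method B: 1 h enzyme–compound preincubation.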

[4] = Method B: enzyme mix pre-incubated with compound 1 hour at 20° C., started with substrate mix
[5] = Method A: substrate mix added first, reaction started with enzyme mix

SMILES | IC50 [1] [nM] | IC50 [2] [nM] | Activity (Method): pIC50 class against ErbB2 or EGFR [3, 4] | Activity (Method): pIC50 class against ErbB2 or EGFR [3, 5]
Cn1cccc1C(=O)Nc1cccc(-c2nn3ccccc3c2-c2ccnc(Nc3cccc(C#N)c3)n2)c1 [Example 150, N-{3-[3-(2-(3-Cyanophenyl)amino-4-pyrimidinyl)-pyrazolo[1,5-b]pyridin-2-yl]-phenyl}-1-methyl-1H-pyrrole-2-carboxamide] | < 100 | > 1000 | +++ (B) (at least one pIC50 measurement of greater than 7 against either ErbB2 or EGFR) | 
NC(=O)c1ccc(Nc2nccc(-c3c(-c4cccc(NC(=O)c5c(F)cccc5F)c4)nn4ccccc34)n2)cc1 [Example 104, N-{3-[3-(2-{[4-(Aminocarbonyl)phenyl]amino}-4-pyrimidinyl)pyrazolo[1,5-a]pyridin-2-yl]phenyl}-2,6-difluorobenzamide-ethane (1:1)] | < 100 | 100 to 1000 |  | 
Cc1noc(C)c1C(=O)Nc1cccc(-c2nn3ccccc3c2-c2ccnc(Nc3cccc(F)c3)n2)c1 [Example 38, N-[3-(3-{2-[(3-fluorophenyl)amino]-4-pyrimidinyl}-pyrazolo[1,5-a]pyridin-2-yl)phenyl]-3,5-dimethyl-4-isoxazolecarboxamide] | 100 to 1000 |  | +++ (B) (at least one pIC50 measurement of greater than 7 against either ErbB2 or EGFR) | 
Cc1cccc(C(=O)Nc2cccc(-c3nn4ccccc4c3-c3ccnc(Nc4ccccc4)n3)c2)c1 [Example 141, 3-Methyl-N-(3-{3-[2-(phenylamino)-4-pyrimidinyl]pyrazolo[1,5-a]pyridin-2-yl}phenyl)benzamide] | 100 to 1000 |  |  | ++ (A) (at least one pIC50 measurement greater than 6 against either ErbB2 or EGFR but no measurement greater than pIC50 of 7)
O=C(Nc1cccc(-c2nn3ccccc3c2-c2ccnc(Nc3cccc(F)c3)n2)c1)c1ccccc1C(F)(F)F [Example 16, N-(3-{3-[2-(3-Fluoro-phenylamino)-pyrimidin-4-yl]-pyrazolo[1,5-a]pyridin-2-yl}-phenyl)-2-trifluoromethyl-benzamide] | < 100 |  | +++ (B) (at least one pIC50 measurement of greater than 7 against either ErbB2 or EGFR) | 
N#Cc1cccc(Nc2nccc(-c3c(-c4cccc(NC(=O)c5cc(F)ccc5F)c4)nn4ccccc34)n2)c1 [Example 48, N-[3-(3-{2-[(3-Cyanophenyl)amino]-4-pyrimidinyl}pyrazolo[1,5-a]pyridin-2-yl)phenyl]-2,5-difluorobenzamide] | < 100 |  |  | +++ (A) (at least one pIC50 measurement of greater than 7 against either ErbB2 or EGFR)
O=C(Nc1cccc(-c2nn3ccccc3c2-c2ccnc(Nc3cccc(F)c3)n2)c1)c1cnc2ccccc2n1 [Example 24, N-[3-(3-{2-[(3-Fluorophenyl)amino]-4-pyrimidinyl}pyrazolo[1,5-a]pyridin-2-yl)phenyl]-2-quinoxalinecarboxamide] | > 1000 |  | + (B) (no pIC50 measurement greater than 6 against either ErbB2 or EGFR) | 

Second part, led by results:

IC50 [1] [nM] | IC50 [2] [nM] | SMILES | Activity (Method): pIC50 class against ErbB2 or EGFR [3, 4] | Activity (Method): pIC50 class against ErbB2 or EGFR [3, 5]
100 to 1000 | 100 to 1000 | CN(C)CC(=O)Nc1cccc(Nc2nccc(-c3c(-c4cccc(NC(=O)c5c(F)cccc5F)c4)nn4ccccc34)n2)c1 [Example 110, N-(3-{3-[2-({3-[(N,N-dimethylglycyl)amino]phenyl}-amino)-4-pyrimidinyl]pyrazolo[1,5-a]pyridin-2-yl}phenyl)-2,6-difluorobenzamide] | +++ (B) (at least one pIC50 measurement of greater than 7 against either ErbB2 or EGFR) | 
< 100 | 100 to 1000 | CN1CCN(c2ccc(Nc3nccc(-c4c(-c5cccc(NC(=O)c6c(F)cccc6F)c5)nn5ccccc45)n3)cc2)CC1 [Example 91] | +++ (B) (at least one pIC50 measurement of greater than 7 against either ErbB2 or EGFR) | 
> 1000 | > 1000 | COc1ccc(-c2nn3ccccc3c2-c2ccnc(Nc3ccc4c(c3)CNCC4)n2)cc1NC(=O)c1c(F)cccc1F [Example 159, 2,6-Difluoro-N-(2-(methyloxy)-5-{3-[2-(1,2,3,4-tetrahydro-7-isoquinolinylamino)-4-pyrimidinyl]pyrazolo[1,5-a]pyridin-2-yl}phenyl)benzamide] | + (B) (no pIC50 measurement greater than 6 against either ErbB2 or EGFR) | 
100 to 1000 | > 1000 | O=C(Nc1cccc(-c2nn3ccccc3c2-c2ccnc(Nc3ccc(-c4cc[nH]n4)cc3)n2)c1)c1c(F)cccc1F [Example 101, 2,6-Difluoro-N-{3-[3-(2-{[4-(1H-pyrazol-3-yl)phenyl]amino}-4-pyrimidinyl)pyrazolo[1,5-a]pyridin-2-yl]phenyl}benzamide] |  | 
< 100 | 100 to 1000 | CN(C)C1Cc2ccc(Nc3nccc(-c4c(-c5cccc(NC(=O)c6c(F)cccc6F)c5)nn5ccccc45)n3)cc2C1 (centres unmarked) [Example 176, N-{3-[3-(2-{[2-(Dimethylamino)-2,3-dihydro-1H-inden-5-yl]amino}-4-pyrimidinyl)pyrazolo[1,5-a]pyridin-2-yl]phenyl}-2,6-difluorobenzamide] |  | 
< 100 |  | O=C(Nc1cccc(-c2nn3ccccc3c2-c2ccnc(Nc3cccc(F)c3)n2)c1)c1c(F)cccc1C(F)(F)F [Example 13, 2-Fluoro-N-(3-{3-[2-(3-fluoro-phenylamino)-pyrimidin-4-yl]-pyrazolo[1,5-a]pyridin-2-yl}-phenyl)-6-trifluoromethyl-benzamide] | +++ (B) (at least one pIC50 measurement of greater than 7 against either ErbB2 or EGFR) | 
> 1000 |  | O=C(Nc1cccc(-c2nn3ccccc3c2-c2ccnc(Nc3ccc4cnccc4c3)n2)c1)c1c(F)cccc1F [Example 65, 2,6-Difluoro-N-(3-{3-[2-(6-isoquinolinylamino)-4-pyrimidinyl]pyrazolo[1,5-a]pyridin-2-yl}phenyl)benzamide] | ++ (B) (at least one pIC50 measurement greater than 6 against either ErbB2 or EGFR but no measurement greater than pIC50 of 7) | 
100 to 1000 |  | Cc1ccsc1C(=O)Nc1cccc(-c2nn3ccccc3c2-c2ccnc(Nc3cccc(F)c3)n2)c1 [Example 77, N-[3-(3-{2-[(3-fluorophenyl)amino]-4-pyrimidinyl}pyrazolo[1,5-a]pyridin-2-yl)phenyl]-3-methyl-2-thiophenecarboxamide] | +++ (B) (at least one pIC50 measurement of greater than 7 against either ErbB2 or EGFR) | 
100 to 1000 |  | Nc1ccc(C(=O)Nc2cccc(-c3nn4ccccc4c3-c3ccnc(Nc4ccccc4)n3)c2)cc1 [Example 144, 4-Amino-N-(3-{3-[2-(phenylamino)-4-pyrimidinyl]pyrazolo[1,5-a]pyridin-2-yl}phenyl)benzamide] |  | +++ (A) (at least one pIC50 measurement of greater than 7 against either ErbB2 or EGFR)
100 to 1000 |  | Cn1cccc1C(=S)Nc1cccc(-c2nn3ccccc3c2-c2ccnc(Nc3ccc4c(c3)OCCO4)n2)c1 [Example 10, 1-Methyl-1H-pyrrole-2-carbothioic acid (3-{3-[2-(2,3-dihydro-benzo[1,4]dioxin-6-ylamino)-pyrimidin-4-yl]pyrazolo[1,5-a]pyridin-2-yl}-phenyl)-amide] |  | ++ (A) (at least one pIC50 measurement greater than 6 against either ErbB2 or EGFR but no measurement greater than pIC50 of 7)
